The results in this text go back to patent publication US20080220416A1, “Compositions for Inhibiting Cell Growth and Inducing Apoptosis in Cancer Cells and Methods of Use Thereof” (THE BOARD OF TRUSTEES OF THE UNIVERSITY OF ILLINOI, priority 2004, published 2008).

Peptide text beside a SMILES is read from it. * marks the point of attachment. Cbz = O=C(OCc1ccccc1)*

For the assay, the system named is NOXA. The assay is described as follows: Western blot of NOXA after proteasome inhibitors in normal melanocytes. In kind it is cell-based, human. Conditions: 18 hrs. An excerpt: A panel of melanoma cells were used to assess the effect of bortezomib on pro-apoptotic proteins. RJ002L, C8161, MUM2B and SK-MeI-28 melanoma cells, as well as two normal melanocyte cultures (MC-010 and MC-012) were examined. Prior to testing, the RJ002L melanoma cell lines were maintained in RPMI supplemented with 10% FBS. Late passage melanoma cell lines (C8161, MUM2B and SK-Me1028) were utilized as previously described (Welch D et al., 1991, Int J Cancer 47:227-237; Bittner M et al., 2000, Nature 406:536-540). Normal human melanocytes were isolated from neonatal foreskins and cultured as previously described (Qin J et al., 2004, Mol Cancer Ther 3:895-902). Proliferating cells were examined by Western blot analysis before and after 18 hrs of exposure to bortezomib (1 μM). Antibodies were obtained as follows: Bad (SC-8044), Bcl-2 (SC-7382), Bcl-xL (SC-634), Mcl-1 (SC-819), Bak (SC-832) from Santa Cruz Biotechnology (Santa Cruz, Calif.); NOXA (OP180) from Calbiochem; Bid, Bim and PUMA from Cell Signaling (Beverly, Mass.); BAX from Upstate (Charlottesville, Va.); and β-actin from ICN (Irvine, Calif.). For the Western blot analysis, whole cell extracts were prepared as previously described (Denning M et al., 1998, J Biol Chem 273:29995-30002). Briefly, cells were harvested by scraping monolayers and washed with PBS. Cell pellets were resuspended in CHAPS buffers containing a protease inhibitor cocktail. Extracts were vigorously shaken at 4° C. for 15 min followed by centrifugation. Supernatants were collected and protein concentration determined using Bio-Rad reagent. Thirty to 50 microgram protein samples were resolved by SDS-polyacrylamide gel electrophoresis and transferred to polyvinylidene difluoride membrane by electroblotting. Membranes were probed with the various primary antibodies overnight at 4° C., followed by detection using ECL reagents (Amersham Pharmacia Biotech, Piscataway, N.J.) according to manufacturer's instructions.
Two other proteasome inhibitors, lactasytsin and MG-132, were tested for the ability to induce NOXA in melanoma cells and melanocytes. […]

`CC(C)C[C@@H](C=O)NC(=O)[C@H](CC(C)C)NC(=O)[C@H](CC(C)C)NC(=O)OCc1ccccc1` [MG-132, benzoxycarbonyl-Leucyl-Leucyl-Leucyl-aldehyde] (Cbz-Leu-Leu-Leu-aldehyde): where the note is “MC-004, MC-005, MC-006, MC-008, 1 μM or 10 μM”, the NOXA induction result was “no induction of NOXA in any of the normal melanocytes”.

`CC(C)C[C@H](NC(=O)[C@H](Cc1ccccc1)NC(=O)c1cnccn1)B(O)O` [bortezomib, N-(2-pyrazine)carbonyl-L-phenylalanine-L-leucine boronic acid]: under “MC-010, MC-012, 1 μM”, the NOXA induction result is recorded as “did not exhibit NOXA induction”.
